From patent US11773421B2, “Method for producing fructose-6-phosphate from dihydroxy acetone phosphate and glyceraldehyde-3-phosphate” (Global Bioenergies, priority 2018, dated 2023)

Legend:
FsaA A129S = target: T1, FsaA A129S (Escherichia coli, UniProt P78055, A129S); assay: Impact of AMP concentration on fructose-6-phosphate aldolase activity of FsaA A129S; assay type: biochemical, E. coli; settings: AMP several concentrations; 200 mM DHA, 3 mM D,L-G3P, 0.4 mg/ml FsaA A129S, 30° C., NADPH formation at 340 nm; FIG. 2
T1 construct: made in house; host or cells: E. coli BL21(DE3), ASKA collection plasmid
Method: (§1) A series of tests was conducted in order to determine if AMP has an inhibitory effect on the enzymatic activity of fructose-6-phosphate aldolase and/or fructose bisphosphatase. […] Chem Cat Chem, Wiley, 7:1871-1879 (2015).

fructose bisphosphatase = fructose bisphosphatase (Escherichia coli, UniProt P0A993); assay: Impact of AMP concentration on fructose bisphosphatase activity; assay type: biochemical; settings: AMP several concentrations; 1 mM F1,6bisP, 0.2 mg/ml FBP enzyme, 30° C., NADPH formation at 340 nm; FIG. 1
Method: as §1

Sequence of fructose bisphosphatase (P0A993 whole entry): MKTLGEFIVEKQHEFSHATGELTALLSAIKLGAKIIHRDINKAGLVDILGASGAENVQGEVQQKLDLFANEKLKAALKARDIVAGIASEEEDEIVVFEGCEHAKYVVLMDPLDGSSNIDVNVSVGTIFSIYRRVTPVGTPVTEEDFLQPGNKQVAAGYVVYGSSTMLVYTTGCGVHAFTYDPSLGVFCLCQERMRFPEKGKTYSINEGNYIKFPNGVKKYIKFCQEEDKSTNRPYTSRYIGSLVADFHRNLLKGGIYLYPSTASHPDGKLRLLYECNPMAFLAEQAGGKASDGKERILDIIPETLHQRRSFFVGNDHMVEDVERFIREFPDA
T1 sequence (P78055 whole entry A129S): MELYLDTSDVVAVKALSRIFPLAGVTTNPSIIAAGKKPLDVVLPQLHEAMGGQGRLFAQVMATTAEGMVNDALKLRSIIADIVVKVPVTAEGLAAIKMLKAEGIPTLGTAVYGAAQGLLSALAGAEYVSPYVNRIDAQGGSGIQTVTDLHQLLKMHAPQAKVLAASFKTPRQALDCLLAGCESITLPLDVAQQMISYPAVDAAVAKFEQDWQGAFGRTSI

`Nc1ncnc2c1ncn2[C@@H]1O[C@H](COP(=O)(O)O)[C@@H](O)[C@H]1O` [AMP] was tested, and the “inhibitory effect of AMP on fructose-6-phosphate aldolase activity” value (FsaA A129S) was “No inhibitory effect” and the “impact of AMP on fructose bisphosphatase activity” value (fructose bisphosphatase) was “strong inhibitory impact”.
